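All cell lines were grown in 96-well plates and treated with compound for 48 hours. GI50 = concentration required for 50% inhibition of growth. The concentration for full growth arrest is given as TGI.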 Where only a bound is given, the exact number is not on record here.

Test systems include NCI/ADR-RES ovarian; OVCAR-4 ovarian; SR leukemia; U251 CNS; SN12C renal; HOP-92 NSCLC; EKVX NSCLC; HCT-15 colon; HL-60(TB) leukemia; NCI-H226 lung.
Common to all, as to experiment: inhibition of tumour cell growth, NCI panel, 48 h

Take `COc1ccc(/C=N/N=C(\[O-])c2ccncc2)cc1F.COc1ccc(/C=N\N=C(/[O-])c2ccncc2)cc1F.[Cu+2]`: the GI50 with NCI/ADR-RES ovarian is 13.4 µM; in the experiment on OVCAR-4 ovarian, 18.5 µM; in the experiment on SR leukemia, 16.8 µM; in the experiment with U251 CNS it was 19.4 µM; with SN12C renal it was 40.4 µM; in the experiment with HOP-92 NSCLC, 19.1 µM. Moreover, the GI50 is 24.3 µM in the experiment on EKVX NSCLC and 52.6 µM in the experiment with HCT-15 colon. For the same molecule, the TGI in the experiment on NCI/ADR-RES ovarian is 28.8 µM; in the experiment on OVCAR-4 ovarian it was 34.5 µM; in the experiment on SR leukemia, 69.6 µM; in the experiment on U251 CNS it was 35.8 µM; in the experiment with SN12C renal, over 100 µM; in the experiment with HOP-92 NSCLC, 38.6 µM. Further, the TGI with EKVX NSCLC is 76.3 µM; with HCT-15 colon it was over 100 µM.
`Nc1c(C(=O)Nc2cccc(Br)c2)sc2nc3c(cc12)C(O)CCC3` (centres undefined): the GI50 is 0.435 µM in the experiment with NCI/ADR-RES ovarian; 3.14 µM in the experiment with OVCAR-4 ovarian; 0.228 µM in the experiment with SR leukemia; 0.487 µM with U251 CNS; 0.636 µM with SN12C renal; 0.24 µM in the experiment on HL-60(TB) leukemia. In addition, the GI50 in the experiment on HOP-92 NSCLC was 0.383 µM; with NCI-H226 lung it was 0.936 µM; with HCT-15 colon, 0.35 µM. In addition, the TGI in the experiment with NCI/ADR-RES ovarian is over 48.8 µM; in the experiment on OVCAR-4 ovarian it was 66 µM; in the experiment on SR leukemia it was over 46 µM; in the experiment on U251 CNS it was 20.4 µM; in the experiment on SN12C renal, over 100 µM; with HL-60(TB) leukemia, 0.757 µM. The TGI in the experiment on HOP-92 NSCLC is 11.4 µM; in the experiment with NCI-H226 lung it was 54.4 µM; in the experiment with HCT-15 colon, over 100 µM.
`CCOC(=O)NC(=O)c1c[nH]c(=O)[nH]c1=O`: the TGI with OVCAR-4 ovarian, in the experiment on SR leukemia, in the experiment on U251 CNS, in the experiment with SN12C renal, in the experiment on HL-60(TB) leukemia and in the experiment on HOP-92 NSCLC was over 100 µM in each case. In addition, the TGI in the experiment with EKVX NSCLC, in the experiment with NCI-H226 lung and in the experiment with HCT-15 colon was over 100 µM in each case.
For the molecule `Nc1nc(N)c(-c2ccccc2)c(CCC(=O)Nc2ccc(Cl)cc2)n1`, the TGI with OVCAR-4 ovarian, in the experiment with SR leukemia, with U251 CNS, in the experiment with SN12C renal, in the experiment with HL-60(TB) leukemia and in the experiment on HOP-92 NSCLC was over 100 µM throughout. Also, the TGI in the experiment with EKVX NSCLC, in the experiment with NCI-H226 lung and in the experiment with HCT-15 colon was over 100 µM throughout.
`CCOC(=O)/N=c1/nc(N(C)C)ss1`: the TGI in the experiment on OVCAR-4 ovarian, with SR leukemia, with U251 CNS, in the experiment on SN12C renal, in the experiment on HL-60(TB) leukemia and with HOP-92 NSCLC was over 100 µM throughout. Also, the TGI in the experiment with EKVX NSCLC, in the experiment on NCI-H226 lung and in the experiment with HCT-15 colon was over 100 µM each time.
Regarding `NS(=O)(=O)c1ccc(NC(=O)COC(=O)c2cccc3c(=O)c4ccccc4[nH]c23)cc1`, the TGI in the experiment on OVCAR-4 ovarian was over 100 µM; in the experiment with SR leukemia it was 19.7 µM; in the experiment with U251 CNS, 28.1 µM; in the experiment on SN12C renal it was 90 µM; in the experiment on HL-60(TB) leukemia, over 100 µM; in the experiment with HOP-92 NSCLC, 38.6 µM. The TGI is over 100 µM with EKVX NSCLC, 61.1 µM in the experiment with NCI-H226 lung and over 100 µM with HCT-15 colon.
As to `Cc1cc(O)c(C(c2ccncc2)c2c(O)cc(C)[nH]c2=O)c(=O)[nH]1`, the TGI in the experiment with NCI/ADR-RES ovarian, with OVCAR-4 ovarian, in the experiment on SR leukemia, with U251 CNS, in the experiment on SN12C renal and in the experiment with HL-60(TB) leukemia was over 100 µM in each case. Further, the TGI in the experiment on EKVX NSCLC and in the experiment with HCT-15 colon was over 100 µM each time.
Consider `Cc1ccc(S(=O)OC23CC4CC(CC(C4)C2)C3)cc1` (centres undefined), for which the TGI in the experiment with OVCAR-4 ovarian was over 100 µM; with SR leukemia, over 100 µM; in the experiment on U251 CNS, over 100 µM; in the experiment on SN12C renal, over 100 µM; in the experiment with HL-60(TB) leukemia, 44.3 µM; with HOP-92 NSCLC it was over 100 µM. For the same molecule, the TGI with EKVX NSCLC, in the experiment with NCI-H226 lung and with HCT-15 colon was over 100 µM in each case.
Take `O=C1c2ccn(CCCCN3CCC(O)CC3)c2C(=O)c2c1c(O)c1ccccc1c2O`: the GI50 with NCI/ADR-RES ovarian was 78.8 µM; in the experiment with OVCAR-4 ovarian, 17.9 µM; with SR leukemia, over 100 µM; in the experiment with U251 CNS, 15.4 µM; in the experiment with SN12C renal, 15.2 µM; with HOP-92 NSCLC, 8.95 µM. Further, the GI50 with EKVX NSCLC was 14.5 µM; with NCI-H226 lung, 23.7 µM; in the experiment on HCT-15 colon, 2.68 µM. The TGI with NCI/ADR-RES ovarian was over 100 µM; in the experiment with OVCAR-4 ovarian, over 64.4 µM; in the experiment with SR leukemia, over 100 µM; with U251 CNS, 43.4 µM; with SN12C renal it was 34.9 µM; in the experiment with HOP-92 NSCLC, 41.1 µM. Further, the TGI with EKVX NSCLC came out at 46.5 µM; in the experiment with NCI-H226 lung, 60.2 µM; with HCT-15 colon it was 8.83 µM.
For `COc1cccc(C2=C(c3cn(C)c4cccc(OC)c34)C(=O)NC2=O)c1`, the GI50 is 5.28 µM in the experiment with NCI/ADR-RES ovarian; over 21.3 µM in the experiment with OVCAR-4 ovarian; 2.08 µM in the experiment with SR leukemia; 11.5 µM in the experiment with U251 CNS; 15.1 µM in the experiment on SN12C renal; 9.75 µM in the experiment on HL-60(TB) leukemia. Besides, the GI50 was 8.89 µM with HOP-92 NSCLC, over 25 µM in the experiment on NCI-H226 lung and 3.41 µM in the experiment on HCT-15 colon. For the same molecule, the TGI in the experiment with NCI/ADR-RES ovarian, with OVCAR-4 ovarian, in the experiment on SR leukemia, in the experiment with U251 CNS, in the experiment with SN12C renal and in the experiment on HL-60(TB) leukemia was over 25 µM in each case. Besides, the TGI in the experiment on HOP-92 NSCLC, in the experiment with NCI-H226 lung and in the experiment on HCT-15 colon was over 25 µM in each case.
As for `CN(C)CC1CCCC/C1=N/OC(=O)c1ccc(Cl)c(Cl)c1` (centres undefined), the TGI in the experiment with OVCAR-4 ovarian, in the experiment with SR leukemia, with U251 CNS, in the experiment with SN12C renal, in the experiment on HL-60(TB) leukemia and with HOP-92 NSCLC was over 100 µM each time. Besides, the TGI in the experiment with EKVX NSCLC, in the experiment on NCI-H226 lung and in the experiment with HCT-15 colon was over 100 µM throughout.
For `Cc1ncc([N+](=O)[O-])n1CCNC(=O)CCCCCn1ccnc1[N+](=O)[O-]`, the TGI with NCI/ADR-RES ovarian, in the experiment on SR leukemia, in the experiment on U251 CNS, in the experiment on SN12C renal, in the experiment on HL-60(TB) leukemia and in the experiment on NCI-H226 lung was over 100 µM each time. Moreover, the TGI with HCT-15 colon was over 100 µM.

The values above are taken from PubChem BioAssay (NCI).
